Assay results reported in US4629740A, “Anticonvulsant agents” (Eli Lilly and Company, priority 1984, dated 1986).

Key:
[1] = test system: Cox standard strain albino male mice (extensor tonic convulsions); assay: electroshock induced convulsion inhibition assay (E.S.); type: in vivo; settings: for ED50: Mus musculus, po, 1 h, by gavage, 60 minutes before 0.1 second, 50 milliampere corneal electroshock, inhibition of extensor tonic convulsions in one half of mice
Description: (§1) In the electroshock induced convulsion inhibition assay (E.S.), the compound to be tested was dissolved in water (5%--sufficient hydrochloric acid was added for those compounds which were not isolated as a salt in order to effect dissolution) and administered by gavage to each of three Cox standard strain albino male mice (18-24 g.) at the dose level being investigated. Sixty minutes after compound administration, the mice were subjected to a 0.1 second, 50 milliampere electroshock through corneal electrodes. The animals were examined and evaluated immediately after the electroshock for the occurrence of clonic, flexor tonic, or extensor tonic convulsions, or death and the ED50 was determined for each compound as the dose which inhibited the occurrence of extensor tonic convulsions in one half of the animals immediately after the electroshock. For comparison, 18 milliamperes was usually sufficient to produce extensor tonic convulsions in about half of the control animals; at 50 milliamperes, almost all control animals (receiving vehicle only) died.

in vivo = assay: in vivo; parameters: species or system mice; settings: mouse, po
Description: (§2) The compounds were also evaluated for determining toxic potential. In determining toxic potential as manifested by neurological deficit, ataxia, or sedation, the "horizontal screen" (H.S.) was employed. This test is well accepted as a measure of impaired motor function in mice. The methodology was identical to that taught by Coughenour, et al., Pharmacology, Biochemistry and Behavior, 6, 351 (1977). For each compound, the ED50 was determined as the dose which caused one half of the animals to fail to reach the top of the screen. The compounds were administered to the mice in the same manner as described above for the electroshock assay 60 minutes before they were tested in the horizontal screen assay.

[2] = protective index (P.I.), ratio of horizontal screen ED50 over electroshock ED50; type: in vivo, mice; settings: mouse, in vivo, po; mice, gavage; read-out: Protective Index (H.S. ED50 /E.S. ED50)
Description: as §1, §2
(§3) From the above two test systems, the protective index (P.I.) can be calculated as the ratio of the horizontal screen ED50 over the ED50 of the electroshock assay. Thus, a large P.I. is indicative of a broader therapeutic range. A large P.I. thus provides a wide margin of safety allowing greater flexibility in treating epilepsy and other convulsive disorders.

[3] = test system: maximal electroshock seizure; settings: racemic form; reported in U.S. Pat. No. 4,379,165; cited from earlier work
seizures in man = settings: cited from earlier work
mice = assay: protective index (P.I.), ratio of horizontal screen ED50 over electroshock ED50; type: in vivo; settings: enantiomers compared with each other or the racemate
Description: as §1, §2, §3

CC(NC(=O)c1ccc(N)cc1)c1ccccc1 (racemic) [(R,S), (R,S)-4-amino-N-(1-phenylethyl)benzamide]
ED50 [1]: 12.5 mg/kg | TD50 at 1 h (in vivo): 105 mg/kg | selectivity ratio at 1 h [2]: 8.4 | protective index (P.I.), TD50 (Rotorod) to ED50 (maximal electroshock seizure) [3]: 9.48

O=C1NC(=O)C(c2ccccc2)(c2ccccc2)N1 [phenytoin]
plasma level at which seizures are controlled (seizures in man; Gilman, Goodman, and Gilman, 6th Ed.): ≥ 10 µg/mL | plasma level at which ataxia is obvious (seizures in man): 30000 ng/mL | plasma level at which lethargy is apparent (seizures in man): about 40 mcg./ml. | plasma level at which nystagmus is seen (seizures in man): around 20 mcg./ml.

C[C@@H](NC(=O)c1ccc(N)cc1)c1ccccc1 [(R), (R)-4-amino-N-(1-phenylethyl)benzamide]
ED50 [1]: 17.8 mg/kg | TD50 at 1 h (in vivo): 480 mg/kg | selectivity ratio at 1 h [2]: 27 | protective index (in words) (mice): increased protective index ratio

C[C@H](NC(=O)c1ccc(N)cc1)c1ccccc1 [(S), (S)-4-amino-N-(1-phenylethyl)benzamide]
anticonvulsant potency (in words) ([1]; (S)-isomer compared with (R)-isomer and racemate): more potent as an anticonvulsant agent than either the (R)-isomer or the racemate | ED50 [1]: 10 mg/kg | TD50 at 1 h (in vivo): 141 mg/kg | selectivity ratio at 1 h [2]: 14.1
